SMILES strings stand for the structures.

The term Cmax denotes the peak of the concentration-time curve. Broadly, the AUC is the area under the concentration-time curve, a measure of exposure. Read a low AUC as low exposure. For orientation: AUC(0-t) means the area under the concentration-time curve up to a stated or last time point.

A short description of data set [1]: Tissue, plasma, rectal sample and GI content pharmacokinetics of tacrolimus, oral vs. intra-cecal ingestible device (Example 10). Details: species or system Yorkshire-Cross farm swine. The following applies: in vivo; for Cmax: female, Yorkshire-Cross, pig, IC capsule. As to the method: No further randomization procedure was employed.
Animals in Group 1 received an ingestible device containing 0.8 mL of vehicle solution (80% alcohol, 20% HCO-60). Animals in Group 2 received orally […] liquid formulation of tacrolimus at 4 mg/0.8 mL per animal (Prograf: 5 mg/mL). Animals in Group 3 received intra-cecally an ingestible device containing tacrolimus at 1 mg in 0.8 mL per ingestible device. Animals in Group 4 received intra-cecally an ingestible device containing tacrolimus at 2 mg in 0.8 mL per ingestible device. Animals in Group 5 received intra-cecally an ingestible device containing tacrolimus at 4 mg in 0.8 mL per ingestible device. To control for potential confounding effects of the surgery, all groups fast on Day −11 at least 24 hr before being subjected to anesthesia followed by surgical placements of a cecal port by a veterinary surgeon at Day −10. All animals were fasted for at least 12 hr prior to dosing on Day 1. Animals were dosed via either intra-cecal dosing (IC) or oral dosing (PO) at Day 1 (between 6-8 p.m.). All animals resumed feeding at approximately 4 hours after dose (11-12 p.m. after dosing).
Animals in Group 1 (Vehicle Control) were administered a single intra-cecal ingestible device containing 0.8 mL Vehicle solution (80% alcohol, 20% castor oil (HCO-60) on Day 1. On Day −10 the animals were anesthetized, and a veterinary surgeon surgically placed an intra-cecal port in each animal. On Day 1, each animal was placed into a sling then a single intra-cecal ingestible device containing 0.8 mL vehicle solution (80% alcohol, 20% castor oil (HCO-60)) is introduced by the veterinary surgeon into the cecum via the cecal port in each animal. Following ingestible device placement, the animals were removed from the slings and placed back into their pens with water. All animals resumed feeding at approximately 4 hours after dose. […] A total of 60 samples were collected.
Approximately 200˜400 mg of rectal content were collected, if available, with a fecal swab (Copan Diagnostics Nylon Flocked Dry Swabs, 502CS01). The fecal swab was pre-weighed and weighed after collection in the collection tube (Sterile Tube and Cap No Media, PFPM913S), and the sample weight was recorded. The fecal swab was broken via the breakpoint, and was stored in the collection tube, and immediately frozen at −70° C. […] Immediately following euthanasia, tissue was collected.
For tissue necropsy, small intestine fluid and cecal fluid were collected separately from all the animals into two separate square plastic bottles, and stored at −20° C. The length and diameter of the cecum and the colon was measured from one animal in each group and recorded for reference. Tissues were collected for pharmacokinetic analyses and include mesenteric lymph nodes, a Peyer's Patch, and five gastrointestinal sections, including cecum, proximal colon, transverse colon, distal colon, and rectum. All samples were weighed, and the tissue sample weights were recorded. In each of the five gastrointestinal sections, tissue samples were collected in three different areas where the mucosal surface was visible and not covered by luminal content by using an 8.0-mm punch biopsy tool. Around 3 grams of the total punched sample were collected into a pre-weighed 15-mL conical tube, and the tissue weight was recorded. Three mesenteric lymph nodes were collected from different areas and weighed. At least one Peyer's Patch was collected and weighed.
Luminal contents were collected for pharmacokinetic analyses from the surface of the tissue from each of five gastrointestinal sections: cecum, proximal colon, transverse colon, distal colon, and rectum (total of 75).

The nature of the next data set: in vivo. As to the method:
The primary objective of this study was to study the pharmacokinetics of oral versus intra-cecal administration of tacrolimus in normal Yorkshire-Cross farm swine.
This study compares the effects of administration of: a single intra-cecal administration of a device containing 0.8 mL sterile vehicle solution (80% alcohol, 20% castor oil (HCO-60)); a single oral dose of tacrolimus at 0.09 mg/kg (in sterile vehicle solution); and a single intra-cecal administration of a device containing either 0.02 mg/kg (in sterile vehicle solution), 0.04 mg/kg (in sterile vehicle solution), or 0.09 mg/kg (in sterile vehicle solution).
This study employed five groups of three female swine weighing approximately 45 to 50 kg at study start. Swine were randomly placed into animal rooms/pens as they are transferred from the delivery vehicle without regard to group. Group numbers were assigned to the rooms in order of room number. No further randomization procedure was employed.
Animals in Group 1 received intra-cecally a device containing a vehicle solution (80% alcohol, 20% HCO-60). Animals in Group 2 received orally a liquid formulation of tacrolimus at 0.09 mg/kg per animal. Animals in Group 3 received intra-cecally a device containing tacrolimus at 0.02 mg/kg per device. Animals in Group 4 received intra-cecally a device containing tacrolimus 0.04 mg/kg per device. Animals in Group 5 received intra-cecally a device containing tacrolimus 0.09 mg/kg per device.

Setting [2] is: female, Yorkshire-Cross, pig, in vivo, 0.02 mg/kg.
The mark [3] stands for this setting: female, Yorkshire-Cross, pig, in vivo, 0.09 mg/kg.

For `C=CC[C@@H]1/C=C(\C)C[C@H](C)C[C@H](OC)[C@H]2O[C@@](O)(C(=O)C(=O)N3CCCC[C@H]3C(=O)O[C@H](/C(C)=C/[C@@H]3CC[C@@H](O)[C@H](OC)C3)[C@H](C)[C@@H](O)CC1=O)[C@H](C)C[C@@H]2OC` [tacrolimus], the peak concentration (Cmax) came to 9.2 ± 3.3 ng/mL in data set [1] (high (0.09 mg/kg) dose (first value)), 21.8 ± 4.73 ng/mL in data set [1] (moderate (0.04 mg/kg) dose) and 2.39 ± 0.57 ng/mL in “in vivo” (setting [2]). Further, in data set [1], the “luminal content (spiral, transverse, and distal colon) concentrations” value is “Significantly higher”. The “mean concentration of tacrolimus in the cecum tissue and the proximate colon tissue” value in data set [1] is listed as “higher”. Further, the “tissue (spiral and transverse colon) concentrations” value in data set [1] was “Significantly higher”. For the same compound, in data set [1] (po), the “level of tacrolimus in tissue” value is listed as “No measurable level”. The area under the curve (AUC) in the data set “in vivo” (female, Yorkshire-Cross, pig, 0.02 mg/kg) was determined as 15.3 ± 2.36 ng·h/mL; in the data set “in vivo” (female, Yorkshire-Cross, pig, 0.04 mg/kg), 51.4 ± 4.04 ng·h/mL; in the data set “in vivo” (setting [3]), 130 ± 7.83 ng·h/mL; in the data set “in vivo” (female, Yorkshire-Cross, pig, po, 0.09 mg/kg) it was 16.8 ± 3.64 ng·h/mL. The AUC(0-t) in “in vivo” (setting [2]) is 15.3 ng·h/mL; in “in vivo” (female, Yorkshire-Cross, pig, in vivo, 0.04 mg/kg), 51.4 ng·h/mL; in the data set “in vivo” (setting [3]), 130 ng·h/mL; in the data set “in vivo” (female, Yorkshire-Cross, pig, in vivo, po, 0.09 mg/kg), 16.8 ng·h/mL. Further, the concentration at 12 h in the data set “in vivo” (female, Yorkshire-Cross, pig, po, 0.09 mg/kg, Trough (12 hr)) came out at 0.568 ± 0.291 ng/mL. In addition, the Kp at 12 h in “in vivo” (female, Yorkshire-Cross, swine, po, 0.09 mg/kg) stood at 0. For the same compound, the “Ratio Tissue (mean) (ng/g)/ Trough(12 hr)(ng/ml)” value in “in vivo” (female, Yorkshire-Cross, swine, po, 0.09 mg/kg, 12 h) was 0. Moreover, the “mean concentration and AUC0-12 hours of tacrolimus in the blood” value in “in vivo” (po, 0.09 mg/kg) is on record as “higher”.

These data come from patent US11596670B2, “Treatment of a disease of the gastrointestinal tract with IL-10 or an IL-10 agonist” (BIORA THERAPEUTICS, INC., priority 2017, dated 2023).
